From patent US20260272923A1, “NONSENSE MEDIATED DECAY INHIBITOR COMPOUNDS” (The Johns Hopkins University, priority 2023, published 2026)

Columns and labels:
[1] = tested on: nonsense mediated decay (NMD); assay: Targeted RNA-sequencing of indel genes in LS180 cells; assay type: cell-based; details: serial dilution starting at 5 uM, 16 hrs
Procedure: LS180 Cells were plated into 96 well plates at 1e4 cells/well. The compound of Formula III was solubilized in DMSO and added in a serial dilution starting at 5 uM and diluting 1:2. Cells were incubated for 16 hrs at 37 C and 5% CO2. RNA was harvested using an RNeasy kit (Qiagen). Reverse transcription was performed per manufacturer's instructions (High Capacity cDNA kit from Applied Biosciences). Primers specific for the indel mutation site for 3 genes were used, and at least one primer from each set overlapped an exon-exon boundary. RNF43 is a common SNP that is heterozygous in LS180 and was used as a negative control. After PCR amplification, products were barcoded with an 8 bp sequence so the well it originated in could be determined, and sequenced on a Miseq (Illumina). Transcripts from the wild type and mutant allele were counted to determine abundance of each with treatment or without (FIG. 8A).

[2] = tested on: nonsense mediated decay (NMD); assay: Targeted RNA-sequencing of subcutaneous H358 and LS180 tumors in nude mice; assay type: in vivo; details: IP dose at 30 mg/kg, H358 or LS180 tumors, 16 hours after treatment
Procedure: All animal work was done under the supervision and guidance of Johns Hopkins Animal Care and Use committee with appropriate protocols and humane standards of care. LS180 and H358 cell lines (ATCC) were placed subcutaneously in the back of nude mice (Jackson Laboratories). The compound of Formula III was solubilized in 10% cremaphor (Sigma Aldrich) with 2% glycerol (Sigma Aldrich) and sterilized by 0.22 uM filter (Thermo Scientific). After tumors reached palpable size, about 7 days, mice were treated with […] of the compound of Formula III by IP injection. 16 hours after treatment, mice were sacked, and tumors were harvested and stored in RNA Later (Thermo Scientific). RNA was harvested using an RNeasy kit (Qiagen) and Qiashredder (Qiagen). Reverse transcription was performed per manufacturer's instructions (High Capacity cDNA kit from Applied Biosciences). Primers specific for the indel mutation site for 3 genes were used, and at least one primer from each set overlapped an exon-exon boundary. […] After PCR amplification, products were barcoded with an 8 bp sequence so the well it originated in could be determined, and sequenced on a Miseq (Illumina). Transcripts from the wild type and mutant allele were counted to determine abundance of each with treatment or without (FIGS. 9A-9B).

mutant protein (TP53) [3] = assay: TP53 western blot in H358, LS180 and RPE TP53 KO clone 224; assay type: cell-based; details: 5 uM, 16 hours
Procedure: H358 (negative control), LSl80, and RPE TP53 KO line clone 224 were plated (at 1e5 cells per well) into 6 well plates. Wells were treated with 5 uM of the compound of Formula III for 16 hours. Cells were harvested, pelleted and washed with PBS. Cells were lysed using RIPA buffer (Thermo Scientific) and then run through a Qiashredder column (Qiagen) following manufacturer's instructions. Protein was quantified using a BCA Kit (Pierce). 50 ug of protein was loaded into 5-15% polyacrylamide gels (Biorad) and run for 30 min at 200V. Protein was transferred to a nitrocellulose membrane following manufacturer's recommendations and stained with a TP53 protein (clone DO-1 from Cell Signaling) overnight in 3% milk with TBS-T. HRP conjugated secondary antibody was used for detection and imaged on a gel imager (Bio Rad) (FIG. 8B).

[4] = tested on: nonsense mediated decay (NMD); assay: Real time PCR of STAG2 transcripts in RPE STAG2 knockout cells; assay type: cell-based; details: serial dilution starting at 10 uM, 16 hrs
Procedure: RPE STAG2 knockout cells were created and plated into 96 well plates at 1e4 cells/well. The compound of Formula II was solubilized in DMSO and added in a serial dilution starting at 10 uM and diluting 1:2. Cells were incubated for 16 hrs at 37 C and 5% CO2. RNA was harvested using an RNeasy kit (Qiagen). Real time PCR was performed using primers specific for STAG2 transcripts and at least one primer overlapped an exon-exon boundary (FIG. 7A).

mutant protein (TP53) [5] = assay: TP53 western blot in TP53 KO lines; assay type: cell-based; details: 5 uM, 16 hours
Procedure: TP53 KO lines were created and plated (at 1e5 cells per well) into 6 well plates. Wells were treated with 5 uM of the compound of Formula II for 16 hours. Cells were harvested, pelleted and washed with PBS. Cells were lysed using RIPA buffer (Thermo Scientific) and then run through a Qiashredder column (Qiagen) following manufacturer's instructions. Protein was quantified using a BCA Kit (Pierce). 50 ug of protein was loaded into 5-15% polyacrylamide gels (Biorad) and run for 30 min at 200V. Protein was transferred to a nitrocellulose membrane following manufacturer's recommendations and stained with a TP53 protein (clone DO-1 from Cell Signaling) overnight in 3% milk with TBS-T. HRP conjugated secondary antibody was used for detection and imaged on a gel imager (Bio Rad) (FIG. 7B).

[6] = tested on: nonsense mediated decay (NMD); assay: Ratiometric mutant/wild type transcript sequencing assay (HTS) in RPE1 STAG2 and TP53 isogenic knockout cell lines; assay type: cell-based
From the text: An experimental system was generated to identify and evaluate NMD inhibitors based on a panel of isogenic cell lines developed to assess tumor suppressor gene function and synthetic lethality. Briefly, common tumor suppressor genes were individually knocked out in multiple non-cancerous cell lines using the Clustered Regularly Interspaced Short Palindromic Repeats (CRISPR)-Cas9 system. As part of this effort, two genes displaying strong activation of NMD in response to indel creation were identified, Stromal Antigen 2 (STAG2) and Tumor Protein p53 (TP53). The absence of detectable protein in these knock out cell lines was verified via western blots against STAG2 and immunohistochemistry for TP53. Further, active RNA decay of the mutant transcripts was identified through whole transcriptome RNA-sequencing. […]
A high throughput screen (HTS) was then performed by treating the isogenic cell line mixture with the SelleckChem Bioactive library, consisting of 2,658 small molecules and natural products (FIG. 1A). Total RNA was harvested from cells 16 hours post treatment and the gRNA target regions were amplified using a panel of primers (one for TP53 and one for STAG2) and mutant and wild type transcript abundance was quantified using next generation sequencing. […]

[7] = tested on: nonsense mediated decay (NMD); assay: NCI-H358 and LS180 xenograft tumors in NOD-SCID mice, mutant RNA transcripts and tolerability; assay type: in vivo
[8] = tested on: nonsense mediated decay (NMD); assay: Targeted RNA sequencing of heterozygous indel mutations in NCI-H358 and LS180 cells; assay type: cell-based; details: NCI-H358 and LS180, in vitro
From the text: (§1) It was next sought to evaluate whether LY3023414 could relieve repression of indel containing transcripts in cancer cells. The microsatellite stable NCI-H358 and microsatellite instable LS180 lung and colorectal cancer cell lines were chosen respectively. Nearly 40% of heterozygous indel and 25% of nonsense single base-pair mutation containing genes show increased expression of their mutant allele when treated with LY3023414 when evaluated by RNA sequencing (FIG. 2A). […] Heterozygous single nucleotide polymorphism (SNP) Ring Finger Protein 43 (RNF43) and drosha ribonuclease […] (DROSHA) served as controls, and allele ratios remain unchanged with treatment (FIG. 2B). To investigate for changes at the protein level, NCI-H358 cells were treated for 24 hours with either LY3023414 or DMSO.
(§2) Analyzing a wider set of 21 NMD sensitive genes from the RNA-Seq analysis in LS180 confirmed that LY3023414 and SMG1 specific inhibitor increase the same 18 genes with a greater than 80% re-expression rate, in both cell lines. […] As SMG1 inhibition is an off target effect for LY3023414, the concentrations used in this study may result in inhibition of a number of different kinases.
(§3) To confirm disruption of downstream signaling of SMG1, a western blot was performed with phosphorylation specific antibodies for UPF1.

[9] = tested on: NMD sensitive transcripts (TP53β); assay: Quantitative real time PCR of TP53α and TP53β transcripts in parental RPE1 and RPTec cells; assay type: cell-based
Procedure: (§4) To confirm generality of the NMD HTS hits, validations were performed on isogenic STAG2 and TP53 knockouts in a second cell line background, RPtec (renal) cells. Transcript recovery was first evaluated in STAG2 and TP53 isogenic knockout clones from this second background. […] A TP53 knockout cell line was then selected with a homozygous mutation predicted to generate a truncated TP53 protein readily identifiable by established TP53 antibodies (DO-1). […] Using cell lines where the TP530 isoform transcripts are expected to be intact, an increase in the TP53$ isoform was also observed in cell lines treated with the NMD inhibitors (FIG. 1E middle and left column). […] Based on strong induction of predicted mutant truncated protein across multiple isogenic cell lines LY3023414 was selected as the NMD inhibiting compound of interest. LY3023414 was created as a phosphatidylinositol 3-kinase (PI3K) inhibitor with activity against AKT Serine/Threonine Kinase 1 (AKT1) and Target of Rapamycin (mTOR).

[10] = tested on: NMD targeted mutant protein (EXOC1, SPTAN1); assay: Western blot of mutant proteins in NCI-H358 and LS180 cells; assay type: cell-based; details: NCI-H358 cells, 24 hours
From the text: as §1, §2, §3

phosphorylated UPF1 = assay: Phospho-UPF1 specific western blot; assay type: cell-based; details: FIG. 3D
Procedure: as §2, §3

[11] = tested on: nonsense mediated decay (NMD); assay: RNA sequencing of NCI-H358 and LS180 cancer cell lines; assay type: cell-based
From the text: as §1, §2

[12] = tested on: truncated mutant TP53 protein; assay: TP53 western blot in TP53 knockout clones; assay type: cell-based; details: for expression of truncated mutant TP53 protein: TP53 knockout cell line with homozygous mutation, DO-1 antibody
Procedure: as §4

[13] = tested on: mutant form of TP53 protein; assay: Western blot against TP53 in NCI-H716 and NCI-H2228 cell lines

CNC(=O)Nc1ccc(-c2cc(-c3ccnc(Nc4ccc(Cl)c(S(=O)(=O)N5CCN(C)CC5)c4)n3)ccn2)cc1 [compound of Formula III]
mutant RNA re-expression [1]: re-expresses mutant RNA in vitro
in vivo NMD inhibition (re-expression of NMD downregulated genes) [2]: in vivo NMD inhibition activity
mutant protein re-expression (mutant protein (TP53) [3]): re-expresses mutant protein in vitro

CNC(=O)Nc1ccc(-c2cc(-c3ccnc(Nc4ccc(Cl)c(S(=O)(=O)N(CCO)CCO)c4)n3)ccn2)cc1 [compound of Formula II]
mutant RNA re-expression [4]: re-expresses mutant RNA
mutant protein re-expression (mutant protein (TP53) [5]): re-expresses mutant protein

COc1ccc(C[C@H]2NC[C@H](O)[C@H]2OC(C)=O)cc1 [Anisomycin]
mutant transcript fraction ([6]; 16 hours post treatment, in all three cell lines, 0.5 = 4 standard deviations above DMSO controls): above 0.5

CO[C@@H](C)Cn1c(=O)n(C)c2cnc3ccc(-c4cncc(C(C)(C)O)c4)cc3c21 [LY3023414]
autopsies of treated animals ([7]; mice treated with LY3023414): no abnormalities
weight loss ([7]; mice treated with LY3023414): severe weight loss
expression of mutant RNA transcripts in tumors ([7]; single dose by oral gavage, tumors harvested over 24 hours): increase in the expression of mutant RNA transcripts
mutant allele RNA expression [8]: significant increased expression of the mutant allele
TP53α and TP53β transcript levels [9]: only the NMD regulated (TP53β) transcript levels increased with treatment
truncated mutant EXOC1 and SPTAN1 protein expression [10]: truncated mutant protein only expressed after treatment with LY3023414
phospho-UPF1 levels (phosphorylated UPF1): increases the levels of phospho-UPF
heterozygous indel containing genes with increased expression of mutant allele [11]: ~40%
nonsense single base-pair mutation containing genes with increased expression of mutant allele [11]: 25%
induction of TP53β and mutant TP53 (western blot) ([12]; RPE TP53 clone 223, RPTec TP53 KO 588, full-length not induced): prominently induced
expression of truncated mutant TP53 protein [12]: robustly induced expression of the truncated mutant TP53 protein

O=C(CC1NCCCC1O)Cn1cnc2cc(Br)c(Cl)cc2c1=O (centres unmarked) [halofuginone]
expression of truncated mutant TP53 protein [12]: robustly induced expression of the truncated mutant TP53 protein

O=c1[nH]cc(F)c(=O)[nH]1 [5-fluorouracil]
TP53 protein levels [13]: no effect on TP53 levels

CC[C@H]1CN2CCc3cc(OC)c(OC)cc3[C@@H]2C[C@@H]1C[C@H]1NCCc2cc(OC)c(OC)cc21 [emetine]
recovery of mutant RNA transcript expression ([6]; RPE1 STAG2/TP53 knockout cell line mixture): 6 fold
